Holding throughout (assay type): in vivo, Brown Norway rats
The subject of one test is caspase 3. As to the kind of experiment: Caspase 3 colorimetric activity assay in retinal lysates after retinal detachment. The note with it: retinal lysates 24 hours after retinal detachment; 500 mg/kg/day i.p.; P<0.05. An excerpt: (§1) In the examples described herein, all animal experiments adhered to the Association for Research in Vision and Ophthalmology Statement for the Use of Animals in Ophthalmic and Vision Research, and protocols were approved by the Animal Care Committee of the Massachusetts Eye and Ear Infirmary. Adult male Brown Norway rats (200 to 300 g) were purchased from Charles River Laboratories (Wilmington, Mass.). The rats were fed standard laboratory chow and allowed free access to water in an air-conditioned room with a 12 hour light/12 hour dark cycle.
(§2) Experimental retinal detachment was induced by subretinal injection of hyaluronic acid as previously described (Hisatomi T et al. (2001) AM. J. PATHOL. 158:1271-1278). Briefly, rats were anesthetized with 100 μl of a mixture of 5 parts Ketamine (100 mg/ml, Phoenix Pharmaceutical, Inc., St Joseph, Mo.), 4 parts PBS and 1 part Xylazine (100 mg/ml, Lloyd Laboratories, Inc., Shenandoah, Iowa). Body temperature was monitored and the animals were kept on a heating pad during the procedure as well as during the recovery period. […]
(§3) The caspase assays were performed on the retina of animals without retinal detachment (n=6) as well as animals with retinal detachment that received vehicle (n=8) or TUDCA (n=8). […] Optical density was assessed at 405 nm and normalized for protein concentration, initial optical density, and compared to a sample filled with buffer. […]

The test system of the next test is CHOP. Kind of test: CHOP western blot (ER stress) of vitreous and neural retina after retinal detachment. The note with it: three days after retinal detachment, systemic administration 500 mg/kg/day i.p.
From the text: as §1
as §2, with “period. The pupils were dilated with drops of phenylephrine 5%/tropicamide 0.5%. A partial retinal detachment was induced with a transscleral, subretinal injection of approximately 50 μl of 1% sodium hyaluronate (Provisc, Alcon Laboratories Inc., Fort Worth, Tex.).” for “period.”

For a further test, the system named is TNF-α. Kind of test: TNF-α ELISA on retinal lysates after retinal detachment. The following applies: 24 hours after retinal detachment; 500 mg/kg/day i.p.; vs vehicle.
From the text: as §1
as §2, with “period. The pupils were dilated with drops of phenylephrine 5%/tropicamide 0.5%.” for “period.”
(§4) In order to measure inflammatory cytokines, eight eyes from each group (animals without retinal detachment as well as animals with retinal detachment that received vehicle or TUDCA) were analyzed using ELISA assays. […]
(In an ELISA, binding on a coated surface is turned into a signal by an enzyme label.)

A further test has as its system caspase 2. As to the kind of experiment: Caspase 2 colorimetric activity assay in retinal lysates after retinal detachment. The note with it: retinal lysates 24 hours after retinal detachment; 500 mg/kg/day i.p.; P<0.05.
From the text: as §1, §2, §3

Another test concerns protein carbonyl content. Kind of test: Protein carbonyl content ELISA (oxidative stress) in retina after retinal detachment. The note with it: one day (24 hours) after retinal detachment; 500 mg/kg/day i.p.; vs vehicle.
From the text: as §1, §2
In order to assess the effect of TUDCA treatment on oxidative stress, the protein carbonyl content in the retina was determined Eight eyes from each group (animals without retinal detachment as well as animals with retinal detachment that received vehicle or TUDCA) were analyzed using ELISA assays. […]

Test [1] deals with photoreceptor cells of detached retina (outer nuclear layer). Kind of test: TUNEL staining of photoreceptor death after experimental retinal detachment. The following applies: administration started six hours after induction of retinal detachment; P=0.03; readout not given.
From the text: as §1
(§5) Experimental retinal detachment was induced by subretinal injection of hyaluronic acid as previously described (Hisatomi T et al. (2001) AM. J. PATHOL. 158:1271-1278). […] Body temperature was monitored and the animals were kept on a heating pad during the procedure as well as during the recovery period. […]
(§6) All values disclosed below were expressed as the mean±SD. Statistical differences between two groups were analyzed by Mann-Whitney U test. […]
Photoreceptor death was assessed by TUNEL staining, which detects DNA fragmentation in apoptotic or necrotic nuclei. […] Fluorescence was imaged using a DM RXA microscope (Leica, Solms Germany) and digitally captured. The number of TUNEL-positive cells per mm^2 at the central area of the detached retina was counted in a masked fashion. […]

The test system of the next test is caspase 8. Kind of test: Caspase 8 colorimetric activity assay in retinal lysates after retinal detachment. The note with it: retinal lysates 24 hours after retinal detachment; 500 mg/kg/day i.p.
From the text: as §1, §2, §3

The next test has as its system caspase 9. Kind of test: Caspase 9 colorimetric activity assay in retinal lysates after retinal detachment. The following applies: retinal lysates 24 hours after retinal detachment; 500 mg/kg/day i.p.; P<0.05.
From the text: as §1, §2, §3

The subject of the next test is caspase 11. Kind of test: Caspase 11 western blot of vitreous and neural retina after retinal detachment. The note with it: samples three days after retinal detachment, 500 mg/kg/day i.p. Background: In western blotting, separated proteins are transferred to a membrane and probed.
Test [2] relates to photoreceptor cells of detached retina (outer nuclear layer). As to the kind of experiment: Outer nuclear layer (ONL) thickness after experimental retinal detachment. The note with it: 500 mg/kg/day i.p., mean±SD.
From the text: as §1, §5, §6
Photoreceptor loss was evaluated by measuring the thickness of the outer nuclear layer (ONL). ONL thickness was determined using National Institutes of Health ImageJ software. Thickness was measured based on the outer boundaries of the DAPI nuclear stain. […]

The next test deals with CD68+ cells. Kind of test: Macrophage infiltration (CD68+ immunostaining) in detached retina. The note with it: one day after induction of retinal detachment; 500 mg/kg/day i.p.; vs vehicle.
From the text: as §1, §2
In order to assess macrophage infiltration in detached retinas, six eyes from each group (rats treated with vehicle or TUDCA) were analyzed. […] The number of CD68+ cells per […] was determined using the same method as described above for the quantification of TUNEL-positive cells.

For a further test, the system named is MCP-1. As to the kind of experiment: MCP-1 ELISA on retinal lysates after retinal detachment. The following applies: samples 24 and 72 hours after retinal detachment (FIG. 2B: one day); 500 mg/kg/day i.p.; vs vehicle.
From the text: as §1
as §2, with “period. The pupils were dilated with drops of phenylephrine 5%/tropicamide 0.5%.” for “period.”
as §4

In the case of `C[C@H](CCC(=O)NCCS(=O)(=O)O)[C@H]1CC[C@H]2[C@@H]3[C@@H](O)C[C@@H]4C[C@H](O)CC[C@]4(C)[C@H]3CC[C@]12C` [TUDCA, tauroursodeoxycholic acid], the “effect on retinal detachment-induced activity of caspase 3” value with caspase 3 was “significantly decreased”. Also, the “effect on CHOP expression” value in the test with CHOP is given as “did not significantly alter CHOP expression”. Further, the “effect on levels of TNF-α” value in the test on TNF-α is “did not affect”. Also, the “effect on retinal detachment-induced activity of caspase 2” value with caspase 2 is “significantly decreased”. The “effect on protein carbonyl content” value in the test with protein carbonyl content is on record as “prevented an increase in protein carbonyl content”. The “neuroprotection with delayed treatment (FIG. 1D)” value in test [1] is “showed efficient neuroprotection”. In addition, in the test on caspase 8, the “effect on activity of caspase 8” value is given as “did not alter”. Also, the “effect on retinal detachment-induced activity of caspase 9” value in the test on caspase 9 is reported as “significantly decreased”. In addition, in the test on caspase 11, the “effect on activity of caspase 11” value is “did not alter”. In addition, the “ONL thickness ratio (normalized, detached/attached retina)” value came to 0.79±0.03 in test [2] (five days after detachment, vehicle 0.57±0.04, P=0.002) and 0.84±0.03 in test [2] (three days of retinal detachment, vehicle 0.65±0.03, P=0.0016). The “effect on macrophage infiltration (CD68+ cells)” value in the test on CD68+ cells is recorded as “did not affect macrophage infiltration”. The “effect on levels of MCP-1” value in the test on MCP-1 is “did not affect”.

The values above are taken from patent US9724357B2, “Methods for preserving photoreceptor cell viability following retinal detachment” (Massachusetts Eye & Ear Infirmary, priority 2011, dated 2017).
